Results taken from patent US20230114728A1 (Venatorx Pharmaceuticals, Inc., priority 2019, published 2023).
In brackets after ≈: the same amount, converted by molar mass.

Experiments:
Assay in all cases: Broth microdilution MIC in CAMHB
Type in all cases: cell-based
A. baumannii ATCC 19606 = conditions: Acinetobacter baumannii, ATCC19606; MHB; read-out: Minimum Inhibitory Concentration, A. baumannii ATCC 19606
Method in brief: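 CLSI broth microdilution in CAMHB: 2-fold compound dilutions inoculated at 2-8×10^5 CFU/mL from 3-5 h log-phase cultures. Incubated at 37 °C for 16-20 h (Enterobacteriaceae, Pseudomonas); MIC read visually as lowest concentration without growth. Strains include hyper-permeable and efflux-deficient mutants.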

E. coli 901C = conditions: Escherichia coli; E. coli 901C (hyper-permeable); MHB; read-out: Minimum Inhibitory Concentration, E. coli 901C
Method in brief: (§1)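 Colonies from cation-adjusted Mueller Hinton agar are grown in broth (3-5 h, 37° C), adjusted by OD600, and added at 2-8×10^5 CFU/mL to 2-fold compound dilutions. After 16-20 h at 37° C, the lowest concentration without growth is taken as MIC.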

E. coli D22 = conditions: Escherichia coli; E. coli D22 (hyper-permeable); MHB; read-out: Minimum Inhibitory Concentration, E. coli D22
Method in brief: as §1

E. coli AG100 = conditions: Escherichia coli; E. coli AG100 (wild-type parent); MHB; read-out: Minimum Inhibitory Concentration, E. coli AG100
Method in brief: as §1

[1] = system: P. aeruginosa (ΔmexAB-oprM); conditions: Pseudomonas aeruginosa, read-out: Minimum Inhibitory Concentration, P. aeruginosa ΔmexAB-OprM
Method in brief: as §1

E. coli ATCC 25922 = conditions: Escherichia coli, ATCC25922; E. coli ATCC 25922; MHB; read-out: Minimum Inhibitory Concentration, E. coli 25922
Method in brief: as §1

[2] = system: K. pneumoniae 848844 producing SHV-11 and KPC-2; conditions: Klebsiella pneumoniae, read-out: Minimum Inhibitory Concentration, K. pneumoniae 848844
Method in brief: as §1

[3] = system: K. pneumoniae SI-117 producing VIM-1; conditions: Klebsiella pneumoniae, read-out: Minimum Inhibitory Concentration, K. pneumoniae SI-117
Method in brief: as §1

P. aeruginosa ATCC 27853 = conditions: Pseudomonas aeruginosa, ATCC27853; MHB; read-out: Minimum Inhibitory Concentration, P. aeruginosa ATCC 27853
Method in brief: as §1

E. coli AG100A = conditions: Escherichia coli, read-out: Minimum Inhibitory Concentration, E. coli AG100A
Method in brief: as §1

[4] = system: K. pneumoniae UMM producing SHV-5 and KPC-2; conditions: Klebsiella pneumoniae, read-out: Minimum Inhibitory Concentration, K. pneumoniae UMM
Method in brief: as §1

P. aeruginosa ATCC 35151 = conditions: Pseudomonas aeruginosa, ATCC35151; MHB; hyper-permeable strain; read-out: Minimum Inhibitory Concentration, P. aeruginosa ATCC 35151
Method in brief: as §1

SMILES	MIC (A. baumannii ATCC 19606)	MIC (E. coli 901C)	MIC (E. coli D22)	MIC (E. coli AG100)	MIC [1]	MIC (E. coli ATCC 25922)	MIC [2]	MIC [3]	MIC (P. aeruginosa ATCC 27853)	MIC (E. coli AG100A)	MIC [4]	MIC (P. aeruginosa ATCC 35151)
NS(=O)(=O)c1cccc(C(NC(=O)N2CCN(CCF)C(=O)C2=O)C(=O)N[C@H]2Cc3cccc(C(=O)O)c3OB2O)c1 (stereo partly drawn) [Example 100, (3R)-3-(2-(4-(2-fluoroethyl)-2,3-dioxopiperazine-1-carboxamido)-2-(3-sulfamoylphenyl)acetamido)-2-hydroxy-3,4-dihydro-2H-benzo[e][1,2]oxaborinine-8-carboxylic acid]	> 128 µg/mL	< 0.25 µg/mL	2 to 4 µg/mL (≈ 3.3 to 6.61 µM)	32 to 64 µg/mL (≈ 52.9 to 106 µM)	8 to 16 µg/mL (≈ 13.2 to 26.4 µM)	32 to 64 µg/mL (≈ 52.9 to 106 µM)	32 to 64 µg/mL (≈ 52.9 to 106 µM)	32 to 64 µg/mL (≈ 52.9 to 106 µM)	> 128 µg/mL	2 to 4 µg/mL (≈ 3.3 to 6.61 µM)	32 to 64 µg/mL (≈ 52.9 to 106 µM)	2 to 4 µg/mL (≈ 3.3 to 6.61 µM)
CCN1CCN(C(=O)N[C@@H](C(=O)N[C@H]2Cc3cccc(C(=O)O)c3OB2O)c2cc(F)c(C(=O)O)cc2Cl)C(=O)C1=O (single isomer, unassigned) [Example 148]	> 128 µg/mL	< 0.25 µg/mL	2 to 4 µg/mL (≈ 3.31 to 6.61 µM)	32 to 64 µg/mL (≈ 52.9 to 106 µM)	8 to 16 µg/mL (≈ 13.2 to 26.5 µM)	> 128 µg/mL	> 128 µg/mL	> 128 µg/mL	> 128 µg/mL	8 to 16 µg/mL (≈ 13.2 to 26.5 µM)	32 to 64 µg/mL (≈ 52.9 to 106 µM)	< 0.25 µg/mL
NCCN1CCN(C(=O)N[C@@H](C(=O)N[C@H]2Cc3cccc(C(=O)O)c3OB2O)c2cc(F)c(O)c(F)c2)C(=O)C1=O (single isomer, unassigned) [Example 159]	> 128 µg/mL	0.5 to 1 µg/mL (≈ 0.869 to 1.74 µM)	2 to 4 µg/mL (≈ 3.48 to 6.95 µM)	8 to 16 µg/mL (≈ 13.9 to 27.8 µM)	2 to 4 µg/mL (≈ 3.48 to 6.95 µM)	8 to 16 µg/mL (≈ 13.9 to 27.8 µM)	32 to 64 µg/mL (≈ 55.6 to 111 µM)	32 to 64 µg/mL (≈ 55.6 to 111 µM)	32 to 64 µg/mL (≈ 55.6 to 111 µM)	2 to 4 µg/mL (≈ 3.48 to 6.95 µM)	8 to 16 µg/mL (≈ 13.9 to 27.8 µM)	< 0.25 µg/mL
CCN1CCN(C(=O)N[C@@H](C(=O)N[C@H]2Cc3cccc(C(=O)O)c3OB2O)c2ccc(C(=O)O)cc2)C(=O)C1=O (single isomer, unassigned) [Example 124]	> 128 µg/mL	< 0.25 µg/mL	2 to 4 µg/mL (≈ 3.62 to 7.24 µM)	8 to 16 µg/mL (≈ 14.5 to 29 µM)	2 to 4 µg/mL (≈ 3.62 to 7.24 µM)	32 to 64 µg/mL (≈ 57.9 to 116 µM)	> 128 µg/mL	> 128 µg/mL	32 to 64 µg/mL (≈ 57.9 to 116 µM)	2 to 4 µg/mL (≈ 3.62 to 7.24 µM)	32 to 64 µg/mL (≈ 57.9 to 116 µM)	< 0.25 µg/mL
CCN1CCN(C(=O)NC(C(=O)N[C@H]2Cc3cccc(C(=O)O)c3OB2O)c2ccc(O)c(F)c2F)C(=O)C1=O (stereo partly drawn) [Example 173]	> 128 µg/mL	< 0.25 µg/mL	2 to 4 µg/mL (≈ 3.57 to 7.14 µM)	8 to 16 µg/mL (≈ 14.3 to 28.6 µM)	2 to 4 µg/mL (≈ 3.57 to 7.14 µM)	8 to 16 µg/mL (≈ 14.3 to 28.6 µM)	> 128 µg/mL	32 to 64 µg/mL (≈ 57.1 to 114 µM)	> 128 µg/mL	2 to 4 µg/mL (≈ 3.57 to 7.14 µM)	32 to 64 µg/mL (≈ 57.1 to 114 µM)	0.5 to 1 µg/mL (≈ 0.892 to 1.78 µM)
O=C(O)c1cccc2c1OB(O)[C@@H](NC(=O)C(NC(=O)N1CCNC1=O)c1c(F)cc(O)cc1F)C2 (stereo partly drawn) [Example 156, (3R)-3-(2-(2,6-difluoro-4-hydroxyphenyl)-2-(2-oxoimidazolidine-1-carboxamido)acetamido)-2-hydroxy-3,4-dihydro-2H-benzo[e][1,2]oxaborinine-8-carboxylic acid]	> 128 µg/mL	0.5 to 1 µg/mL (≈ 0.992 to 1.98 µM)	8 to 16 µg/mL (≈ 15.9 to 31.7 µM)	32 to 64 µg/mL (≈ 63.5 to 127 µM)	8 to 16 µg/mL (≈ 15.9 to 31.7 µM)	32 to 64 µg/mL (≈ 63.5 to 127 µM)	32 to 64 µg/mL (≈ 63.5 to 127 µM)	32 to 64 µg/mL (≈ 63.5 to 127 µM)	> 128 µg/mL	2 to 4 µg/mL (≈ 3.97 to 7.93 µM)	32 to 64 µg/mL (≈ 63.5 to 127 µM)	0.5 to 1 µg/mL (≈ 0.992 to 1.98 µM)
CCN1CCN(C(=O)NC(C(=O)N[C@H]2Cc3cccc(C(=O)O)c3OB2O)c2c(F)c(O)cc(O)c2F)C(=O)C1=O (stereo partly drawn) [Example 106, (3R)-3-(2-(2,6-difluoro-3,5-dihydroxyphenyl)-2-(4-ethyl-2,3-dioxopiperazine-1-carboxamido)acetamido)-2-hydroxy-3,4-dihydro-2H-benzo[e][1,2]oxaborinine-8-carboxylic acid]	> 128 µg/mL	2 to 4 µg/mL (≈ 3.47 to 6.94 µM)	8 to 16 µg/mL (≈ 13.9 to 27.8 µM)	> 128 µg/mL	8 to 16 µg/mL (≈ 13.9 to 27.8 µM)	> 128 µg/mL	> 128 µg/mL	> 128 µg/mL	> 128 µg/mL	32 to 64 µg/mL (≈ 55.5 to 111 µM)	> 128 µg/mL	2 to 4 µg/mL (≈ 3.47 to 6.94 µM)
